How the values were obtained:
[1] = test system: novel coronavirus (live coronavirus), vero cells; assay: In-vitro live virus neutralization experiment with serum of immunized mice (CPE method); type: in vivo, SARS-CoV-2; settings: Embodiment I: single peptide 100 μg + MF59 at Day 0, 14, 28, Balb/c mice, serum Day 35
[2] = test system: Balb/c mice; assay: Polypeptide chip-based vaccine immunogenicity scoring system; type: in vivo; design: key to A2: whether the 95 percentile of the last sampling is increased compared with the end point: Y = rise; N = no rise; settings: for A1: difference between a highest median and a D 0 median (95 percentile) / A2: whether the 95 percentile of the last sampling is increased compared with the end point: Mix1-10; for A: 95 percentile grouping number score / B: Mouse performance score: total score = 5; for C1: #A timing-sequence response peptide fragment set / C2: #B vaccine specificity peptide fragment set / C3: Intersection of A and B / C4: Percentage of the intersection in set B / C: Timing-sequence response and specificity score: value of the whole mix
[3] = Embodiment III, polypeptide-KLH
[4] = Embodiment III, polypeptide-KLH, A*3 + B*2 + C*1
[5] = adjuvant AddaVax, 7 peptides co-immunized in mice
[6] = adjuvant Adju-Phos, 7 peptides co-immunized in mice
[7] = adjuvant Alhydrogel, 7 peptides co-immunized in mice
[8] = adjuvant Imjet Alumn, 7 peptides co-immunized in mice
[9] = adjuvant MA103A, 7 peptides co-immunized in mice
[10] = adjuvant MA103B, 7 peptides co-immunized in mice

With YGANKDGI (SARS-CoV-2) [SEQ ID NO:21] the “Neutralizing antibody positive rate (%)” value [1] was 40%, the “B1: D 0-D 14 95 percentile rise in the number of mice” value [2, 3] was 3 and the “B2: D 0-D 21 95 percentile rise in the number of mice” value [2, 3] was 3. For the same sequence, the “B3: D 14-D 21 95 percentile rise in the number of mice” value [2, 3] was 1, the “B4: D 21-D 28 95 percentile rise in the number of mice” value [2, 3] was 1 and the “A1: difference between a highest median and a D 0 median (95 percentile)” value [2, 3] was 0.08. The “A2: whether the 95 percentile of the last sampling is increased compared with the end point” value [2, 3] was “Y”, the Total single peptide [2, 4] was 14.8 and the “A: 95 percentile grouping number score” value [2, 3] was 3.5. For the same sequence, the “B: Mouse performance score” value [2, 3] was 1.9, the “C1: #A timing-sequence response peptide fragment set” value [2, 3] was 230 and the “C2: #B vaccine specificity peptide fragment set” value [2, 3] was 251. For the same sequence, the “C3: Intersection of A and B” value [2, 3] was 1, the “C4: Percentage of the intersection in set B” value [2, 3] was 0.398 and the “C: Timing-sequence response and specificity score” value [2, 3] was 0.5. For the same sequence, the “1) 95 percentile grouping number A” value [2, 5] was 3.5, the “1) 95 percentile grouping number A1” value [2, 5] was 0.055 and the “2) Mouse performance B” value [2, 5] was 2.6. The “2) Mouse performance B1” value [2, 5] was 0, the “2) Mouse performance B2” value [2, 5] was 3 and the “2) Mouse performance B3” value [2, 5] was 5. The “3) Timing-sequence response and specificity C” value [2, 5] was 0, the “3) Timing-sequence response and specificity C1” value [2, 5] was 237 and the “3) Timing-sequence response and specificity C2” value [2, 5] was 1244. For the same sequence, the “3) Timing-sequence response and specificity C3” value [2, 5] was 0, the “3) Timing-sequence response and specificity C4” value [2, 5] was 0.000 and the Total single peptide [2, 5] was 15.7. The “1) 95 percentile grouping number A” value [2, 6] was 4, the “1) 95 percentile grouping number A1” value [2, 6] was 0.05 and the “2) Mouse performance B” value [2, 6] was 2.9. The “2) Mouse performance B1” value [2, 6] was 3, the “2) Mouse performance B2” value [2, 6] was 4 and the “2) Mouse performance B3” value [2, 6] was 3. For the same sequence, the “3) Timing-sequence response and specificity C” value [2, 6] was 0, the “3) Timing-sequence response and specificity C1” value [2, 6] was 203 and the “3) Timing-sequence response and specificity C2” value [2, 6] was 1244. For the same sequence, the “3) Timing-sequence response and specificity C3” value [2, 6] was 0, the “3) Timing-sequence response and specificity C4” value [2, 6] was 0.000 and the Total single peptide [2, 6] was 17.8. For the same sequence, the “1) 95 percentile grouping number A” value [2, 7] was 1.5, the “1) 95 percentile grouping number A1” value [2, 7] was 0.025 and the “2) Mouse performance B” value [2, 7] was 2.4. For the same sequence, the “2) Mouse performance B1” value [2, 7] was 4, the “2) Mouse performance B2” value [2, 7] was 2 and the “2) Mouse performance B3” value [2, 7] was 2. For the same sequence, the “3) Timing-sequence response and specificity C” value [2, 7] was 1, the “3) Timing-sequence response and specificity C1” value [2, 7] was 123 and the “3) Timing-sequence response and specificity C2” value [2, 7] was 1244. For the same sequence, the “3) Timing-sequence response and specificity C3” value [2, 7] was 2, the “3) Timing-sequence response and specificity C4” value [2, 7] was 0.161 and the Total single peptide [2, 7] was 9.8. For the same sequence, the “1) 95 percentile grouping number A” value [2, 8] was 2, the “1) 95 percentile grouping number A1” value [2, 8] was 0.025 and the “2) Mouse performance B” value [2, 8] was 2.4. The “2) Mouse performance B1” value [2, 8] was 0, the “2) Mouse performance B2” value [2, 8] was 4 and the “2) Mouse performance B3” value [2, 8] was 4. For the same sequence, the “3) Timing-sequence response and specificity C” value [2, 8] was 1, the “3) Timing-sequence response and specificity C1” value [2, 8] was 100 and the “3) Timing-sequence response and specificity C2” value [2, 8] was 1244. The “3) Timing-sequence response and specificity C3” value [2, 8] was 3, the “3) Timing-sequence response and specificity C4” value [2, 8] was 0.241 and the Total single peptide [2, 8] was 11.3. The “1) 95 percentile grouping number A” value [2, 9] was 3, the “1) 95 percentile grouping number A1” value [2, 9] was 0.042 and the “2) Mouse performance B” value [2, 9] was 2.6. The “2) Mouse performance B1” value [2, 9] was 4, the “2) Mouse performance B2” value [2, 9] was 3 and the “2) Mouse performance B3” value [2, 9] was 2. For the same sequence, the “3) Timing-sequence response and specificity C” value [2, 9] was 1, the “3) Timing-sequence response and specificity C1” value [2, 9] was 260 and the “3) Timing-sequence response and specificity C2” value [2, 9] was 1244. The “3) Timing-sequence response and specificity C3” value [2, 9] was 3, the “3) Timing-sequence response and specificity C4” value [2, 9] was 0.241 and the Total single peptide [2, 9] was 14.7. For the same sequence, the “1) 95 percentile grouping number A” value [2, 10] was 2.5, the “1) 95 percentile grouping number A1” value [2, 10] was 0.035 and the “2) Mouse performance B” value [2, 10] was 2. For the same sequence, the “2) Mouse performance B1” value [2, 10] was 4, the “2) Mouse performance B2” value [2, 10] was 2 and the “2) Mouse performance B3” value [2, 10] was 1. For the same sequence, the “3) Timing-sequence response and specificity C” value [2, 10] was 0, the “3) Timing-sequence response and specificity C1” value [2, 10] was 153 and the “3) Timing-sequence response and specificity C2” value [2, 10] was 1244. The “3) Timing-sequence response and specificity C3” value [2, 10] was 0, the “3) Timing-sequence response and specificity C4” value [2, 10] was 0.000 and the Total single peptide [2, 10] was 11.5.

With “MEVTPSGTWLTY (SARS-CoV-2) [SEQ ID NO:22]” the “Neutralizing antibody positive rate (%)” value [1] was 20%, the “B1: D 0-D 14 95 percentile rise in the number of mice” value [2, 3] was 3 and the “B2: D 0-D 21 95 percentile rise in the number of mice” value [2, 3] was 3. The “B3: D 14-D 21 95 percentile rise in the number of mice” value [2, 3] was 3, the “B4: D 21-D 28 95 percentile rise in the number of mice” value [2, 3] was 0 and the “A1: difference between a highest median and a D 0 median (95 percentile)” value [2, 3] was 0.07. The “A2: whether the 95 percentile of the last sampling is increased compared with the end point” value [2, 3] was “N”, the Total single peptide [2, 4] was 10.7 and the “A: 95 percentile grouping number score” value [2, 3] was 2. For the same sequence, the “B: Mouse performance score” value [2, 3] was 2.1, the “C1: #A timing-sequence response peptide fragment set” value [2, 3] was 352 and the “C2: #B vaccine specificity peptide fragment set” value [2, 3] was 541. For the same sequence, the “C3: Intersection of A and B” value [2, 3] was 1, the “C4: Percentage of the intersection in set B” value [2, 3] was 0.185 and the “C: Timing-sequence response and specificity score” value [2, 3] was 0.5. The “1) 95 percentile grouping number A” value [2, 5] was 4, the “1) 95 percentile grouping number A1” value [2, 5] was 0.05 and the “2) Mouse performance B” value [2, 5] was 2.9. For the same sequence, the “2) Mouse performance B1” value [2, 5] was 3, the “2) Mouse performance B2” value [2, 5] was 4 and the “2) Mouse performance B3” value [2, 5] was 3. For the same sequence, the “3) Timing-sequence response and specificity C” value [2, 5] was 0, the “3) Timing-sequence response and specificity C1” value [2, 5] was 237 and the “3) Timing-sequence response and specificity C2” value [2, 5] was 1244. For the same sequence, the “3) Timing-sequence response and specificity C3” value [2, 5] was 0, the “3) Timing-sequence response and specificity C4” value [2, 5] was 0.000 and the Total single peptide [2, 5] was 17.8. The “1) 95 percentile grouping number A” value [2, 6] was 5, the “1) 95 percentile grouping number A1” value [2, 6] was 0.075 and the “2) Mouse performance B” value [2, 6] was 2.1. For the same sequence, the “2) Mouse performance B1” value [2, 6] was 3, the “2) Mouse performance B2” value [2, 6] was 4 and the “2) Mouse performance B3” value [2, 6] was 1. The “3) Timing-sequence response and specificity C” value [2, 6] was 0, the “3) Timing-sequence response and specificity C1” value [2, 6] was 203 and the “3) Timing-sequence response and specificity C2” value [2, 6] was 1244. The “3) Timing-sequence response and specificity C3” value [2, 6] was 0, the “3) Timing-sequence response and specificity C4” value [2, 6] was 0.000 and the Total single peptide [2, 6] was 19.2. For the same sequence, the “1) 95 percentile grouping number A” value [2, 7] was 2, the “1) 95 percentile grouping number A1” value [2, 7] was 0.03 and the “2) Mouse performance B” value [2, 7] was 1.7. For the same sequence, the “2) Mouse performance B1” value [2, 7] was 3, the “2) Mouse performance B2” value [2, 7] was 2 and the “2) Mouse performance B3” value [2, 7] was 1. For the same sequence, the “3) Timing-sequence response and specificity C” value [2, 7] was 1, the “3) Timing-sequence response and specificity C1” value [2, 7] was 123 and the “3) Timing-sequence response and specificity C2” value [2, 7] was 1244. The “3) Timing-sequence response and specificity C3” value [2, 7] was 2, the “3) Timing-sequence response and specificity C4” value [2, 7] was 0.161 and the Total single peptide [2, 7] was 9.9. For the same sequence, the “1) 95 percentile grouping number A” value [2, 8] was 5, the “1) 95 percentile grouping number A1” value [2, 8] was 0.145 and the “2) Mouse performance B” value [2, 8] was 2.3. For the same sequence, the “2) Mouse performance B1” value [2, 8] was 5, the “2) Mouse performance B2” value [2, 8] was 4 and the “2) Mouse performance B3” value [2, 8] was 0. For the same sequence, the “3) Timing-sequence response and specificity C” value [2, 8] was 1, the “3) Timing-sequence response and specificity C1” value [2, 8] was 100 and the “3) Timing-sequence response and specificity C2” value [2, 8] was 1244. The “3) Timing-sequence response and specificity C3” value [2, 8] was 3, the “3) Timing-sequence response and specificity C4” value [2, 8] was 0.241 and the Total single peptide [2, 8] was 20.1. The “1) 95 percentile grouping number A” value [2, 9] was 5, the “1) 95 percentile grouping number A1” value [2, 9] was 0.11 and the “2) Mouse performance B” value [2, 9] was 2.5. The “2) Mouse performance B1” value [2, 9] was 5, the “2) Mouse performance B2” value [2, 9] was 5 and the “2) Mouse performance B3” value [2, 9] was 0. For the same sequence, the “3) Timing-sequence response and specificity C” value [2, 9] was 1, the “3) Timing-sequence response and specificity C1” value [2, 9] was 260 and the “3) Timing-sequence response and specificity C2” value [2, 9] was 1244. The “3) Timing-sequence response and specificity C3” value [2, 9] was 3, the “3) Timing-sequence response and specificity C4” value [2, 9] was 0.241 and the Total single peptide [2, 9] was 20.5. For the same sequence, the “1) 95 percentile grouping number A” value [2, 10] was 4.5, the “1) 95 percentile grouping number A1” value [2, 10] was 0.07 and the “2) Mouse performance B” value [2, 10] was 3. For the same sequence, the “2) Mouse performance B1” value [2, 10] was 4, the “2) Mouse performance B2” value [2, 10] was 5 and the “2) Mouse performance B3” value [2, 10] was 2. For the same sequence, the “3) Timing-sequence response and specificity C” value [2, 10] was 0, the “3) Timing-sequence response and specificity C1” value [2, 10] was 153 and the “3) Timing-sequence response and specificity C2” value [2, 10] was 1244. The “3) Timing-sequence response and specificity C3” value [2, 10] was 0, the “3) Timing-sequence response and specificity C4” value [2, 10] was 0.000 and the Total single peptide [2, 10] was 19.5.
